Assay results reported in US20210220295A1, “TREATMENT OF CANCER BY GUANIDINIUM DERIVATIVES” (priority 2018, published 2021).

What was measured:
[1] = mouse, in vivo
[2] = test system: CAPANI cells (which are deficient in brca2); details: cited from earlier work
MCF-7 brca1+/+cells = details: 10 μM, exposure for 10 consecutive days; cited from earlier work

poly-[2-(2-ethoxyethoxyethyl)guanidinium hydrochloride]
tolerated dose, daily intravenous dosing regime [1]: 2.5 mg/kg body weight
tolerated dose, weekly basis ([1]; iv): 5 mg/kg body weight

Cc1nc2c(O)cccc2c(=O)[nH]1 [NU1025]
inhibition of CAPANI cells [2]: not inhibited

CN(C)Cc1ccc(-c2nc3cccc4c3n2CCNC4=O)cc1 [AG14361]
MCF-7 brca1+/+ cells eradicated (MCF-7 brca1+/+cells): 50%

O=C1CCC(=O)N1c1cc(Cc2n[nH]c(=O)c3ccccc23)ccc1F [KU0058684]
inhibition of CAPANI cells [2]: inhibited
